Numbers after ± are expanded uncertainties.
assay: activity coefficient (dimensionless); of the first substance listed, at infinite dilution; xn = mol fraction of the nth substance listed; conditions: 328.15 K; 101.33 kPa; Liquid; Chromatography; x1 = 0

| SMILES | activity coefficient |
| --- | --- |
| C1CCCCCC1 [cycloheptane] + CC[N+](C)(CC)CCOC.O=S(=O)([N-]S(=O)(=O)C(F)(F)F)C(F)(F)F | 13.7 ± 1.2 |
| C1CCCCC1 [cyclohexane] + CC[N+](C)(CC)CCOC.O=S(=O)([N-]S(=O)(=O)C(F)(F)F)C(F)(F)F | 10 ± 0.9 |
| C1=CCCCC1 [cyclohexene] + CC[N+](C)(CC)CCOC.O=S(=O)([N-]S(=O)(=O)C(F)(F)F)C(F)(F)F | 5.56 ± 0.48 |
| C1CCCCCCC1 [cyclooctane] + CC[N+](C)(CC)CCOC.O=S(=O)([N-]S(=O)(=O)C(F)(F)F)C(F)(F)F | 18.6 ± 1.6 |
| C1CCCC1 [cyclopentane] + CC[N+](C)(CC)CCOC.O=S(=O)([N-]S(=O)(=O)C(F)(F)F)C(F)(F)F | 6.85 ± 0.59 |
| CCCCCCCCCC [decane] + CC[N+](C)(CC)CCOC.O=S(=O)([N-]S(=O)(=O)C(F)(F)F)C(F)(F)F | 72.7 ± 6.3 |
| CCOCC [diethyl ether] + CC[N+](C)(CC)CCOC.O=S(=O)([N-]S(=O)(=O)C(F)(F)F)C(F)(F)F | 2.6 ± 0.22 |
| CC(C)OC(C)C [diisopropyl ether] + CC[N+](C)(CC)CCOC.O=S(=O)([N-]S(=O)(=O)C(F)(F)F)C(F)(F)F | 6.28 ± 0.54 |
| CCCOCCC [dipropyl ether] + CC[N+](C)(CC)CCOC.O=S(=O)([N-]S(=O)(=O)C(F)(F)F)C(F)(F)F | 6.58 ± 0.57 |
| CCO [ethanol] + CC[N+](C)(CC)CCOC.O=S(=O)([N-]S(=O)(=O)C(F)(F)F)C(F)(F)F | 1.62 ± 0.14 |
| CCc1ccccc1 [ethylbenzene] + CC[N+](C)(CC)CCOC.O=S(=O)([N-]S(=O)(=O)C(F)(F)F)C(F)(F)F | 2.25 ± 0.19 |
| CCCCCCC [heptane] + CC[N+](C)(CC)CCOC.O=S(=O)([N-]S(=O)(=O)C(F)(F)F)C(F)(F)F | 24.4 ± 2.1 |
| C=CCCCC [hex-1-ene] + CC[N+](C)(CC)CCOC.O=S(=O)([N-]S(=O)(=O)C(F)(F)F)C(F)(F)F | 8.78 ± 0.76 |
| CCCCCC [hexane] + CC[N+](C)(CC)CCOC.O=S(=O)([N-]S(=O)(=O)C(F)(F)F)C(F)(F)F | 16.9 ± 1.5 |
| CO [methanol] + CC[N+](C)(CC)CCOC.O=S(=O)([N-]S(=O)(=O)C(F)(F)F)C(F)(F)F | 1.26 ± 0.11 |
| CC1CCCCC1 [methylcyclohexane] + CC[N+](C)(CC)CCOC.O=S(=O)([N-]S(=O)(=O)C(F)(F)F)C(F)(F)F | 13.8 ± 1.2 |
| CCCCCCCCC [nonane] + CC[N+](C)(CC)CCOC.O=S(=O)([N-]S(=O)(=O)C(F)(F)F)C(F)(F)F | 50 ± 4.3 |
| C=CCCCCCC [oct-1-ene] + CC[N+](C)(CC)CCOC.O=S(=O)([N-]S(=O)(=O)C(F)(F)F)C(F)(F)F | 18.3 ± 1.6 |
| CCCCCCCC [octane] + CC[N+](C)(CC)CCOC.O=S(=O)([N-]S(=O)(=O)C(F)(F)F)C(F)(F)F | 34.8 ± 3 |
| CCCC(C)=O [pentan-2-one] + CC[N+](C)(CC)CCOC.O=S(=O)([N-]S(=O)(=O)C(F)(F)F)C(F)(F)F | 0.862 ± 0.072 |
| CCC(=O)CC [pentan-3-one] + CC[N+](C)(CC)CCOC.O=S(=O)([N-]S(=O)(=O)C(F)(F)F)C(F)(F)F | 0.873 ± 0.072 |
| CCCO [propan-1-ol] + CC[N+](C)(CC)CCOC.O=S(=O)([N-]S(=O)(=O)C(F)(F)F)C(F)(F)F | 2.04 ± 0.18 |
| CC(C)O [propan-2-ol] + CC[N+](C)(CC)CCOC.O=S(=O)([N-]S(=O)(=O)C(F)(F)F)C(F)(F)F | 1.84 ± 0.16 |
| c1ccncc1 [pyridine] + CC[N+](C)(CC)CCOC.O=S(=O)([N-]S(=O)(=O)C(F)(F)F)C(F)(F)F | 0.604 ± 0.053 |
| C=Cc1ccccc1 [styrene] + CC[N+](C)(CC)CCOC.O=S(=O)([N-]S(=O)(=O)C(F)(F)F)C(F)(F)F | 1.3 ± 0.11 |
| C1CCOC1 [tetrahydrofuran] + CC[N+](C)(CC)CCOC.O=S(=O)([N-]S(=O)(=O)C(F)(F)F)C(F)(F)F | 0.83 ± 0.069 |
| c1ccsc1 [thiophene] + CC[N+](C)(CC)CCOC.O=S(=O)([N-]S(=O)(=O)C(F)(F)F)C(F)(F)F | 0.912 ± 0.075 |

same assay, conditions: 338.15 K; 101.33 kPa; Liquid; Chromatography; x1 = 0

| SMILES | activity coefficient |
| --- | --- |
| CCCCC(C)=O [2-hexanone] + CC[N+](C)(CC)CCOC.O=S(=O)([N-]S(=O)(=O)C(F)(F)F)C(F)(F)F | 1.16 ± 0.1 |
| CCC(C)(C)OC [2-methoxy-2-methylbutane] + CC[N+](C)(CC)CCOC.O=S(=O)([N-]S(=O)(=O)C(F)(F)F)C(F)(F)F | 3.83 ± 0.33 |
| COC(C)(C)C [2-methoxy-2-methylpropane] + CC[N+](C)(CC)CCOC.O=S(=O)([N-]S(=O)(=O)C(F)(F)F)C(F)(F)F | 2.65 ± 0.23 |
| CCCC(=O)CC [3-hexanone] + CC[N+](C)(CC)CCOC.O=S(=O)([N-]S(=O)(=O)C(F)(F)F)C(F)(F)F | 1.23 ± 0.1 |
| CCC(C)CC [3-methylpentane] + CC[N+](C)(CC)CCOC.O=S(=O)([N-]S(=O)(=O)C(F)(F)F)C(F)(F)F | 14 ± 1.2 |
| CC(C)=O [acetone] + CC[N+](C)(CC)CCOC.O=S(=O)([N-]S(=O)(=O)C(F)(F)F)C(F)(F)F | 0.499 ± 0.046 |
| CC#N [acetonitrile] + CC[N+](C)(CC)CCOC.O=S(=O)([N-]S(=O)(=O)C(F)(F)F)C(F)(F)F | 0.488 ± 0.045 |
| c1ccccc1 [benzene] + CC[N+](C)(CC)CCOC.O=S(=O)([N-]S(=O)(=O)C(F)(F)F)C(F)(F)F | 1.05 ± 0.09 |
| CCCCO [butan-1-ol] + CC[N+](C)(CC)CCOC.O=S(=O)([N-]S(=O)(=O)C(F)(F)F)C(F)(F)F | 2.39 ± 0.21 |
| C1CCCCCC1 [cycloheptane] + CC[N+](C)(CC)CCOC.O=S(=O)([N-]S(=O)(=O)C(F)(F)F)C(F)(F)F | 12.7 ± 1.1 |
| C1CCCCC1 [cyclohexane] + CC[N+](C)(CC)CCOC.O=S(=O)([N-]S(=O)(=O)C(F)(F)F)C(F)(F)F | 9.39 ± 0.81 |
| C1=CCCCC1 [cyclohexene] + CC[N+](C)(CC)CCOC.O=S(=O)([N-]S(=O)(=O)C(F)(F)F)C(F)(F)F | 5.33 ± 0.46 |
| C1CCCCCCC1 [cyclooctane] + CC[N+](C)(CC)CCOC.O=S(=O)([N-]S(=O)(=O)C(F)(F)F)C(F)(F)F | 17 ± 1.5 |
| C1CCCC1 [cyclopentane] + CC[N+](C)(CC)CCOC.O=S(=O)([N-]S(=O)(=O)C(F)(F)F)C(F)(F)F | 6.47 ± 0.56 |
| CCCCCCCCCC [decane] + CC[N+](C)(CC)CCOC.O=S(=O)([N-]S(=O)(=O)C(F)(F)F)C(F)(F)F | 65.4 ± 5.7 |
| CCOCC [diethyl ether] + CC[N+](C)(CC)CCOC.O=S(=O)([N-]S(=O)(=O)C(F)(F)F)C(F)(F)F | 2.6 ± 0.22 |
| CC(C)OC(C)C [diisopropyl ether] + CC[N+](C)(CC)CCOC.O=S(=O)([N-]S(=O)(=O)C(F)(F)F)C(F)(F)F | 6.16 ± 0.53 |
| CCCOCCC [dipropyl ether] + CC[N+](C)(CC)CCOC.O=S(=O)([N-]S(=O)(=O)C(F)(F)F)C(F)(F)F | 6.41 ± 0.55 |

— the NIST ThermoML archive (doi:10.1016/j.jct.2016.07.017)
